# Assays:
# 11β-HSD1 [1] = biological target: T1, 11β-HSD1 (Homo sapiens, UniProt P28845); assay: Human aortic smooth muscle cell assay (cortisone to cortisol conversion); type: cell-based; details: primary human aortic smooth muscle cells (AoSMC), hTNFα-induced 11β-HSD1, cortisol measured by immunoassay
# T1 construct: endogenous in cells; host or cells: primary human aortic smooth muscle cells (AoSMC), induced with hTNFα
# Procedure: Human Aortic Smooth Muscle Cell Assay
# Primary human aortic smooth muscle cells (AoSMC) are cultured in 5% FBS growth medium to a passage number of 6, then pelleted by centrifugation and resuspended at a density of 9×10^4 cells/mL in 0.5% FBS assay medium containing 12 ng/mL hTNFα to induce expression of 11β-HSD1. Cells are seeded into 96-well tissue culture assay plates at 100 μL/well (9×10^3 cells/well) and incubated for 48 hours at 37° C., 5% CO2. Following induction, cells are incubated for 4 hours at 37° C., 5% CO2 in assay medium containing test compounds then treated with 10 μL/well of 10 μM cortisone solubilized in assay medium, and incubated for 16 hours at 37° C., 5% CO2. Medium from each well is transferred to a plate for subsequent analysis of cortisol using a competitive fluorescence resonance time resolved immunoassay. In solution, an allophycocyanin (APC)-cortisol conjugate and free cortisol analyte compete for binding to a mouse anti-cortisol antibody/Europium (Eu)-anti mouse IgG complex. Higher levels of free cortisol result in diminishing energy transfer from the Europium-IgG to the APC-cortisol complex resulting in less APC fluorescence. Fluorescent intensities for Europium and APC are measured using a LJL Analyst AD. Europium and APC excitation is measured using 360 nm excitation and 615 nm and 650 nm emission filters respectively. Time resolved parameters for Europuium were 1000 μs integration time with a 200 μs delay. APC parameters are set at 150 μs integration time with a 50 μs delay. Fluorescent intensities measured for APC are modified by dividing by the Eu fluorescence (APC/Eu). This ratio is then used to determine the unknown cortisol concentration by interpolation using a cortisol standard curve fitted with a 4-parameter logistic equation. These concentrations are then used to determine compound activity by plotting concentration versus % inhibition, fitting with a 4-parameter curve and reporting the IC50.
# 11β-HSD1 [2] = biological target: T2, 11β-HSD1 (Mus musculus, UniProt P50172); assay: Acute in vivo cortisone conversion assay; details: male C57BL/6 mice, oral dose 10 mg/kg, cortisone challenge 16 hours post dose, serum cortisol by LC-MS/MS
# T2 construct: tissue Harlan Sprague Dawley; host or cells: whole animal, male C57BL/6 mice; serum cortisol read-out
# T2 sequence (P50172 whole entry): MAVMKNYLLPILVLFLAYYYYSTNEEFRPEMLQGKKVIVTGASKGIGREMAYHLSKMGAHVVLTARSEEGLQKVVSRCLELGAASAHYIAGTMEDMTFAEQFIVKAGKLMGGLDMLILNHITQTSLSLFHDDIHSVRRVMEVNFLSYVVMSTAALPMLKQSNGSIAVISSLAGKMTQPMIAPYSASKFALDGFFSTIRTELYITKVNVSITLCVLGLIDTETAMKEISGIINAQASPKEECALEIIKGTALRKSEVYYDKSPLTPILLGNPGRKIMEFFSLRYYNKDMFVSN
# Procedure: Acute In Vivo Cortisone Conversion Assay
# In general, compounds are dosed orally into mice, the mice are challenged with a subcutaneous injection of cortisone at a set timepoint after compound injection, and the blood of each animal is collected some time later. Separated serum is then isolated and analyzed for levels of cortisone and cortisol by LC-MS/MS, followed by calculation of mean cortisol and percent inhibition of each dosing group. Specifically, male C57BL/6 mice are obtained from Harlan Sprague Dawley at average weight of 25 grams. Exact weights are taken upon arrival and the mice randomized into groups of similar weights. Compounds are prepared in 1% w-w HEC, 0.25% w-w polysorbate 80, 0.05% w-w Dow Corning antifoam #1510-US at various doses based on assumed average weight of 25 grams. Compounds are dosed orally, 200 μl per animal, followed by a subcutaneous dose, 200 μl per animal, of 30 mg/kg cortisone at 1 to 24 hours post compound dose. At 10 minutes post cortisone challenge, each animal is euthanized for 1 minute in a CO2 chamber, followed by blood collection via cardiac puncture into serum separator tubes. Once fully clotted, tubes are spun at 2500×g, 4° C. for 15 minutes, the serum transferred to wells of 96-well plates (Corning Inc, Costar #4410, cluster tubes, 1.2 ml, polypropylene), and the plates are frozen at −20° C. until analysis by LC-MS/MS. […]
# T1 sequence (P28845 whole entry): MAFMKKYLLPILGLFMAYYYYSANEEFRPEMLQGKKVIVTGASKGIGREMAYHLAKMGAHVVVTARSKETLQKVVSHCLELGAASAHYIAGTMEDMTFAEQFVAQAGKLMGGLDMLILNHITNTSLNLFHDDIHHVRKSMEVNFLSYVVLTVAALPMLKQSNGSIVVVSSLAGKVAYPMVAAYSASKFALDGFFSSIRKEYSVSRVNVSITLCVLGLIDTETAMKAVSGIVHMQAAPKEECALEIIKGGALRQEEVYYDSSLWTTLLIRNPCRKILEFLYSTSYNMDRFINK
SMILES,IC50 (11β-HSD1 [1]),% Inhibition after 16 hours (dose of 10 (mg/kg)) (11β-HSD1 [2])
"CS(=O)(=O)N1CCC(N2CC[C@@H](Cc3c(Cl)cc(-c4ccc(F)cc4)cc3Cl)C2=O)CC1 [Example 1, (R)-3-(3,5-Dichloro-4′-fluoro-biphenyl-4-ylmethyl)-1-(1-methanesulfonyl-piperidin-4-yl)-pyrrolidin-2-one]",85 nM,
"COC(=O)N1CCC(N2CC[C@@H](Cc3c(Cl)cc(-c4ccc(F)cc4)cc3Cl)C2=O)CC1 [Example 3, 4-[(R)-3-(3,5-Dichloro-4′-fluoro-biphenyl-4-ylmethyl)-2-oxo-pyrrolidin-1-yl]-piperidine-1-carboxylic acid methyl ester]",84.5 nM,
"COC(=O)N1CCC(N2CC[C@@H](Cc3c(Cl)cc(-c4ccc(C(=O)N5CCC(C(F)(F)F)CC5)cc4)cc3Cl)C2=O)CC1 [Example 4, 4-{(R)-3-[3,5-Dichloro-4′-(4-trifluoromethyl-piperidine-1-carbonyl)-biphenyl-4-ylmethyl]-2-oxo-pyrrolidin-1-yl}-piperidine-1-carboxylic acid methyl ester]",231 nM,92%
"CNC(=O)N1CCC(N2CC[C@@H](Cc3c(Cl)cc(-c4ccc(F)cc4)cc3Cl)C2=O)CC1 [Example 6, 4-[(R)-3-(3,5-Dichloro-4′-fluoro-biphenyl-4-ylmethyl)-2-oxo-pyrrolidin-1-yl]-piperidine-1-carboxylic acid methylamide]",73 nM,65%
"O=C(Nc1ccccc1)N1CCC(N2CC[C@@H](Cc3c(Cl)cc(-c4ccc(F)cc4)cc3Cl)C2=O)CC1 [Example 8, 4-[(R)-3-(3,5-Dichloro-4′-fluoro-biphenyl-4-ylmethyl)-2-oxo-pyrrolidin-1-yl]-piperidine-1-carboxylic acid phenylamide]",159 nM,
